Reference: patent publication US20260034094A1, “COMPOSITIONS AND METHODS FOR INDUCING FERROPTOSIS” (Kojin Therapeutics, Inc., priority 2022, published 2026)
Like-named read-outs stand apart in the source and are kept apart here.

Experiments:
[1] = test system: RKN cells; assay: RKN cell profiling assay (cell viability, CellTiter-Glo); assay type: cell-based; details: read-out: Cell Killing EC50
Description: RKN cells were suspended in assay medium (F-12 medium supplemented with 10% FBS and penicillin/streptomycin) and seeded at 1,000 cells per well (30 μL total volume) in opaque white 384-well plates (Corning). Cells were allowed to adhere for 24 h at 37° C. (95% humidity, 5% CO2) and then exposed to compounds disclosed herein for 72 h, or in the present case, 96 h. DMSO stock solutions of compounds were added to cells using a D300e Digital Dispenser (Tecan). The final DMSO concentration in each well was normalized to 0.5% (v/v) after compound treatment. Cell viability was measured using CellTiter-Glo (Promega). After incubation for 15 min at room temperature, luminescence was measured using a PHERAstar FSX microplate reader (BMG Labtech). Ferroptosis rescue experiments were performed as described previously using cells treated with ferrostatin-1 (fer-1, 1.5 μM) when seeding assay plates. Dose-response data were analyzed to determine EC50 values with GraphPad Prism 9 software using a four-parameter logistic equation or CDD Vault (Collaborative Drug Discovery) using the Levenberg-Marquardt algorithm.

[2] = molecular target: human recombinant GCL (Homo sapiens (Human), UniProt P48506); assay: GCL enzyme profiling assay (ADP-Glo luminescence); assay type: biochemical; details: read-out: GCL IC50
human recombinant GCL, sequence (P48506 whole entry): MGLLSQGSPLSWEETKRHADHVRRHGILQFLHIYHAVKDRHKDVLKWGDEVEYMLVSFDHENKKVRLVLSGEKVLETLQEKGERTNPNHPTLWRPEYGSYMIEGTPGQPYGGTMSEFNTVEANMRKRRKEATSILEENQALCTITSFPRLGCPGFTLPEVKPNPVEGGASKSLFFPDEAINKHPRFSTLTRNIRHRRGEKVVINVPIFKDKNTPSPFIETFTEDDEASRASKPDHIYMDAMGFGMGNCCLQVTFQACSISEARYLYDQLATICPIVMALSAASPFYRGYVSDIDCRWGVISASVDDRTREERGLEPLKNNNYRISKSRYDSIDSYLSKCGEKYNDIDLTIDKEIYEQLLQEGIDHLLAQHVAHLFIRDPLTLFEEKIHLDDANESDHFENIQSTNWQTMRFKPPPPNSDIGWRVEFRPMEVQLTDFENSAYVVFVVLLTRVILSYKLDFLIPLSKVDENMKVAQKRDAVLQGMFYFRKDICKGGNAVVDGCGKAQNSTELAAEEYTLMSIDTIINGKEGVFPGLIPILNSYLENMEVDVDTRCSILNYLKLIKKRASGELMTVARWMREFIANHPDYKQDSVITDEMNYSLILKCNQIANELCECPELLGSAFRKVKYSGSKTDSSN
Description: The GCL enzyme assay was run in 50 mM HEPES, pH 7.5, containing 150 mM NaCl, 30 mM MgCl2, 0.5 mM EDTA, 1 mM DTT, 0.1 mg/mL BSA, and 0.02% or in the present case 0.2% F-127 in a total assay volume of 10 μL or 10 mL. Compound in pure DMSO was stamped in assay plates (Greiner black 384-well) or appropriate containers using a D300e digital dispenser (TECAN) and the final DMSO concentration was normalized to 1%. A 5 mL, or in the present case, 5 μL mixture of human recombinant GCL (final concentration: 5 nM) and ATP (final concentration: 0.6 mM) was added and the solution was incubated at room temperature (22° C.) for 1 h. The GCL enzyme reaction was initiated by addition of a 5 μL mixture of mono g-glutamate or in the present example, monosodium glutamate (final concentration: 1 mM) and a-aminobutyrate or α-aminobutyrate (final concentration: 1.2 mM). The reaction was stopped after 1 h or in the present case, 2 h by addition of 5 mL, or in the present case, 5 μL ADP GLO Reagent (Promega). The resulting solution was incubated for 2 h at room temperature. This was then followed by addition of 5 mL, or in the present case, 5 μL ADP GLO Detection. After incubation at room temperature for 30 min, the plates were read on a plate reader (PheraStar) using a luminescence protocol to quantify the GCL enzyme activity from each reaction solution. The data was analyzed using a four-parameter logistic equation to calculate IC50.

| SMILES | EC50 ([1]; cell viability) | further results |
| --- | --- | --- |
| N=S(=O)(CCC(c1ccc2[nH]nnc2c1)C(F)(F)F)CC[C@H](N)C(=O)O (some centres unmarked) [Compound 393] | ≥ 1000 µM | – |
| C=C(C)c1ccc(C(CCS(=N)(=O)CC[C@H](N)C(=O)O)C(F)(F)F)cc1 (some centres unmarked) [Compound 262] | < 1000 µM | – |
| Cc1ccc(-c2cccc(C(CCS(=N)(=O)CC[C@H](N)C(=O)O)C(F)(F)F)c2)c(F)c1 (some centres unmarked) [Compound 284] | ≥ 1000 µM | – |
| N=S(=O)(CC[C@H](N)C(=O)O)CCn1ccnc1 (some centres unmarked) [Compound 7] | – | IC50 ([2]; human recombinant GCL 5 nM, 1 h preincubation with ATP): > 2000 µM |
| N=S(=O)(CCC(c1ccc(-c2ccccc2)cc1Cl)C(F)(F)F)CC[C@H](N)C(=O)O (some centres unmarked) [Compound 315] | ≥ 1000 µM | – |
| Cc1ccc(-c2ccc(C(O)(CCS(=N)(=O)CC[C@H](N)C(=O)O)C(F)(F)F)cc2)c(Cl)c1 (some centres unmarked) [Compound 432] | < 1000 µM | – |
| N=S(=O)(CCC(c1ccc2[nH]cnc2c1)C(F)(F)F)CC[C@H](N)C(=O)O (some centres unmarked) [Compound 399] | ≥ 1000 µM | – |
| N=S(=O)(CC[C@H](N)C(=O)O)CCC(O)(c1ccc(-c2ccc(Cl)cc2Cl)cn1)C(F)(F)F (some centres unmarked) [Compound 466] | < 1000 µM | – |
| N=S(=O)(CC[C@H](N)C(=O)O)CCC(O)(c1ccc(-c2ccc(Cl)cc2)cc1)C(F)(F)F (some centres unmarked) [Compound 431] | < 1000 µM | – |
| N=S(=O)(CCC(c1ccc(-c2ccc(F)cc2O)cc1)C(F)(F)F)CC[C@H](N)C(=O)O (some centres unmarked) [Compound 281] | < 1000 µM | – |
| N=S(=O)(CCC(c1cccc(C#Cc2ccccc2)c1)C(F)(F)F)CC[C@H](N)C(=O)O (some centres unmarked) [Compound 273] | ≥ 1000 µM | – |
| Cc1ccc(-c2cccc(C(CCS(=N)(=O)CC[C@H](N)C(=O)O)C(F)(F)F)c2)cc1 (some centres unmarked) [Compound 285] | ≥ 1000 µM | – |
| N=S(=O)(CCC(c1ccc(-c2ccc(Cl)cc2Cl)cc1)C(F)(F)F)CC[C@H](N)C(=O)O (some centres unmarked) [Compound 269] | < 1000 µM | – |
| CNC(=O)c1cccc(-c2ccc(C(CCS(=N)(=O)CC[C@H](N)C(=O)O)C(F)(F)F)cc2)c1 (some centres unmarked) [Compound 230] | ≥ 1000 µM | – |
| N=S(=O)(CCC(CO)C(F)(F)F)CC[C@H](N)C(=O)O (some centres unmarked) [Compound 320] | < 1000 µM | – |
| N[C@@H](CC[S@@](=O)(CCCC(F)(F)F)=NP(=O)(O)O)C(=O)O [Compound 138, (S)-2-amino-4-((S)-4,4,4-trifluoro-N-phosphonobutylsulfonimidoyl)butanoic acid] | – | EC50 ([1]; 96 h, 96 h exposure): < 1000 µM |
| C#Cc1ccc(C(CCS(=N)(=O)CC[C@H](N)C(=O)O)C(F)(F)F)cc1 (some centres unmarked) [Compound 272] | < 1000 µM | – |
| N=S(=O)(CCC(c1ccc(-c2cc[nH]n2)cc1)C(F)(F)F)CC[C@H](N)C(=O)O (some centres unmarked) [Compound 228] | ≥ 1000 µM | – |
| N=S(=O)(CCC(N1CCN(c2ccc(Cl)cc2Cl)CC1)C(F)(F)F)CC[C@H](N)C(=O)O (some centres unmarked) [Compound 423] | < 1000 µM | – |
| N=S(=O)(CCC(c1ccc(-c2ccc(Br)cc2)cc1)C(F)(F)F)CC[C@H](N)C(=O)O (some centres unmarked) [Compound 226] | < 1000 µM | – |
| N=S(=O)(CCC(c1ccc(-c2cnc(C3CC3)nc2)cc1)C(F)(F)F)CC[C@H](N)C(=O)O (some centres unmarked) [Compound 252] | ≥ 1000 µM | – |
| N=S(=O)(CC[C@H](N)C(=O)O)CCC(O)(c1cccc(-c2ccccc2)c1)C(F)(F)F (some centres unmarked) [Compound 435] | ≥ 1000 µM | – |
| Cc1cc(Cl)ccc1-c1ccc(C(O)(CCS(=N)(=O)CC[C@H](N)C(=O)O)C(F)(F)F)cc1 (some centres unmarked) [Compound 430] | < 1000 µM | – |
| N=S(=O)(CCc1cccc(Cl)c1F)CC[C@H](N)C(=O)O (some centres unmarked) [Compound 28] | – | EC50 ([1]; 96 h, 96 h exposure): ≥ 1000 µM |
| N=S(=O)(CCC1CCO1)CC[C@H](N)C(=O)O (some centres unmarked) [Compound 304] | – | IC50 ([2]; human recombinant GCL, ADP-Glo): 20 to 2000 µM |
| N=S(=O)(CCC(c1ccc(Oc2ccc(Cl)cc2Cl)cc1)C(F)(F)F)CC[C@H](N)C(=O)O (some centres unmarked) [Compound 318] | < 1000 µM | – |
| Cc1ccc(-c2cccc(C(CCS(=N)(=O)CC[C@H](N)C(=O)O)C(F)(F)F)c2)cc1F (some centres unmarked) [Compound 290] | ≥ 1000 µM | – |
| N=S(=O)(CCC(c1ccccn1)C(F)(F)F)CC[C@H](N)C(=O)O (some centres unmarked) [Compound 313] | < 1000 µM | – |
| N=S(=O)(CCC(c1ccc(-c2ccc(Cl)s2)cc1)C(F)(F)F)CC[C@H](N)C(=O)O (some centres unmarked) [Compound 256] | < 1000 µM | – |
